Assays:
[1] = molecular target: KRAS G12C (GMPPNP-loaded) and cRAF (Ras-binding domain) interaction (Homo sapiens (Human), UniProt P01116, C118S/C51S/C80L/G12C); assay: Inhibition of KRAS G12C and cRAF binding (AlphaScreen); conditions: KRAS G12C loaded with GMPPNP, cRaf RBD, 2 hours preincubation; read-out: Raf-1 RBD K-Ras IC50
Outline: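 AlphaScreen readout (680 nm excitation, 570 nm emission) of RBD binding after a 60-90 min bead step at room temperature. This step follows 2 h compound exposure of GMPPNP-preloaded KRAS G12C in Hepes pH 7.4 buffer with MgCl2 and 10 μM GMPPNP.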

[2] = molecular target: KRAS G12C (GMPPNP-loaded) and PI3Ka (Ras-binding domain) interaction (Homo sapiens (Human), UniProt P01116, C118S/C51S/C80L/G12C); assay: Inhibition of KRAS G12C and PI3Ka binding (AlphaScreen); conditions: KRAS G12C loaded with GMPPNP, PI3Ka RBD, 2 hours preincubation; read-out: PI3K RBD K-Ras IC50
Experimental: The AlphaScreen technology was used to determine IC50S for compound inhibition of KRAS G12C (present as the Cys-light (C51S, C80L and C118S), truncated version comprising amino acids 1-169) and PI3Ka interaction. Compounds were diluted in 100% DMSO and each compound concentration was spotted at 200 nl/well onto low volume, white 384 well plates. The KRAS G12C contained a biotin-AviTag and the PI3Ka, as Ras-binding domain (amino acids 157-300, RBD), was His-tagged. KRAS G12C was preloaded with the GTP analogue Guanosine 5′-[β,γ-imido]triphosphate (GMPPNP). The KRAS G12C was diluted in 25 mM Hepes, pH 7.4, 150 mM NaCl, 5 mM MgCl2, 0.01% TritonX-100 and 10 μM GMPPNP and added at 10 ul/well to compound-spotted plates resulting in a DMSO concentration of 2%. Plates were incubated for 2 hours. A mixture of RBD and the AlphaScreen streptavidin donor and nickel chelate acceptor beads diluted in 25 mM Hepes, pH 7.4, 150 mM NaCl, 5 mM MgCl2, 0.01% TritonX-100 and 2% DMSO was then added at 10 ul/well and incubated for 60-90 minutes before the samples were read for emission at 570 nm after excitation of the donor beads at 680 nm. All incubations were performed at room temperature. The final top compound concentration was 50 μM with 1:3 titrations for 10-point dose response curves. Final assay conditions were 1.5 nM KRAS G12C, 100 nM RBD, 1.25 ug/ml of AlphaScreen donor beads and 10 μg/ml AlphaLISA acceptor beads. IC50s were determined using nonlinear regression fit of [inhibitor] vs. response (4 parameters). […]

[3] = Determination of logD (1-octanol / phosphate buffer pH 7.4); assay type: physicochemical; conditions: pH 7.4, 1-octanol/phosphate buffer
Outline: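 Each phase analysed by LCMS after 1 h shaking at 800 rpm and centrifugation, room temperature. Phases were mutually saturated 1-octanol and 100 mM phosphate buffer at pH 7.4. LogD derived from the phase concentrations.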

Compound | IC50 [1] [nM] | IC50 [2] [nM] | Log D, pH 7.4 [3]
2-((S)-4-(7-(8-chloro-7-fluoronaphthalen-1-yl)-8-fluoro-2-(((2R,7aS)-2-fluorotetrahydro-1H-pyrrolizin-7a(5H)-yl)methoxy)pyrido[4,3-d]pyrimidin-4-yl)-1-((E)-4-((3aR,6aS)-tetrahydro-1H-furo[3,4-c]pyrrol-5(3H)-yl)but-2-enoyl)piperazin-2-yl)acetonitrile [Example 84] | < 10 | < 10 | 2.97
CN(C/C=C/C(=O)N1CCN(c2nc(OCC34CCCN3CCC4)nc3c2CCN(c2cccc4cccc(Cl)c24)C3)C[C@@H]1CC#N)CC1COC1 [Compound 318] | < 10 | < 10 | –
Cc1noc(/C=C/C(=O)N2CCN(c3nc(OC[C@@]45CCCN4C[C@H](F)C5)nc4c3CCN(c3cccc5ccc(F)c(Cl)c35)C4)C[C@@H]2CC#N)n1 [Example 3, 2-((S)-4-(7-(8-chloro-7-fluoronaphthalen-1-yl)-2-(((2R,7aS)-2-fluorotetrahydro-1H-pyrrolizin-7a(5H)-yl)methoxy)-5,6,7,8-tetrahydropyrido[3,4-d]pyrimidin-4-yl)-1-((E)-3-(3-methyl-1,2,4-oxadiazol-5-yl)acryloyl)piperazin-2-yl)acetonitrile] | 10 to 100 | < 10 | –
N#CC[C@H]1CN(c2nc(OCC34CCCN3CCC4)nc3c2CCN(c2cccc4cccc(Cl)c24)C3)CCN1C(=O)/C=C/CN1CCOCC1 [Example 11, (S,E)-2-(4-(7-(8-chloronaphthalen-1-yl)-2-((hexahydro-1H-pyrrolizin-7a-yl)methoxy)-5,6,7,8-tetrahydropyrido[3,4-d]pyrimidin-4-yl)-1-(4-morpholinobut-2-enoyl)piperazin-2-yl)acetonitrile] | < 10 | 10 to 100 | –
CC(F)(F)c1noc(/C=C/C(=O)N2CCN(c3nc(OC[C@@]45CCCN4C[C@H](F)C5)nc4c3CCN(c3cccc5cccc(Cl)c35)C4)C[C@@H]2CC#N)n1 [Example 12, 2-((S)-4-(7-(8-chloronaphthalen-1-yl)-2-(((2R,7aS)-2-fluorohexahydro-1H-pyrrolizin-7a-yl)methoxy)-5,6,7,8-tetrahydropyrido[3,4-d]pyrimidin-4-yl)-1-((E)-3-(3-(1,1-difluoroethyl)-1,2,4-oxadiazol-5-yl)acryloyl)piperazin-2-yl)acetonitrile] | < 10 | < 10 | –
CC(F)(F)c1noc(/C=C/C(=O)N2CCN(c3nc(OCC45CCCN4CCC5)nc4c(F)c(-c5cccc6cccc(Cl)c56)ncc34)C[C@@H]2CC#N)n1 [Example 13, (S,E)-2-(4-(7-(8-chloronaphthalen-1-yl)-8-fluoro-2-((tetrahydro-1H-pyrrolizin-7a(5H)-yl)methoxy)pyrido[4,3-d]pyrimidin-4-yl)-1-(3-(3-(1,1-difluoroethyl)-1,2,4-oxadiazol-5-yl)acryloyl)piperazin-2-yl)acetonitrile] | 10 to 100 | 10 to 100 | –
Cc1cc(/C=C/C(=O)N2CCN(c3nc(OC[C@@]45CCCN4C[C@H](F)C5)nc4c(F)c(-c5cccc6cccc(Cl)c56)ncc34)C[C@@H]2CC#N)nc(C)n1 [Example 69, 2-((S)-4-(7-(8-chloronaphthalen-1-yl)-8-fluoro-2-(((2R,7aS)-2-fluorotetrahydro-1H-pyrrolizin-7a(5H)-yl)methoxy)pyrido[4,3-d]pyrimidin-4-yl)-1-((E)-3-(2,6-dimethylpyrimidin-4-yl)acryloyl)piperazin-2-yl)acetonitrile] | < 10 | < 10 | –
C[C@@H]1CN(C/C=C/C(=O)N2CCN(c3nc(OC[C@@]45CCCN4C[C@H](F)C5)nc4c(F)c(-c5cccc6ccc(F)c(Cl)c56)ncc34)C[C@@H]2CC#N)C[C@H](C)O1 [Example 73, 2-((S)-4-(7-(8-chloro-7-fluoronaphthalen-1-yl)-8-fluoro-2-(((2R,7aS)-2-fluorotetrahydro-1H-pyrrolizin-7a(5H)-yl)methoxy)pyrido[4,3-d]pyrimidin-4-yl)-1-((E)-4-((2S,6R)-2,6-dimethylmorpholino)but-2-enoyl)piperazin-2-yl)acetonitrile] | < 10 | < 10 | –
C[C@@H]1CN(C/C=C/C(=O)N2CCN(c3nc(OC[C@@]45CCCN4C[C@H](F)C5)nc4c(F)c(-c5cccc6ccc(F)c(Cl)c56)ncc34)C[C@@H]2CC#N)C[C@@H](C)O1 [Example 74, 2-((S)-4-(7-(8-chloro-7-fluoronaphthalen-1-yl)-8-fluoro-2-(((2R,7aS)-2-fluorotetrahydro-1H-pyrrolizin-7a(5H)-yl)methoxy)pyrido[4,3-d]pyrimidin-4-yl)-1-((E)-4-((2R,6R)-2,6-dimethylmorpholino)but-2-enoyl)piperazin-2-yl)acetonitrile] | < 10 | < 10 | –
C[C@H]1CN(C/C=C/C(=O)N2CCN(c3nc(OC[C@@]45CCCN4C[C@H](F)C5)nc4c(F)c(-c5cccc6ccc(F)c(Cl)c56)ncc34)C[C@@H]2CC#N)C[C@H](C)O1 [Example 75, 2-((S)-4-(7-(8-chloro-7-fluoronaphthalen-1-yl)-8-fluoro-2-(((2R,7aS)-2-fluorotetrahydro-1H-pyrrolizin-7a(5H)-yl)methoxy)pyrido[4,3-d]pyrimidin-4-yl)-1-((E)-4-((2S,6S)-2,6-dimethylmorpholino)but-2-enoyl)piperazin-2-yl)acetonitrile] | < 10 | < 10 | –
N#CC[C@H]1CN(c2nc(OC[C@@]34CCCN3C[C@H](F)C4)nc3c(F)c(-c4cccc5ccc(F)c(Cl)c45)ncc23)CCN1C(=O)/C=C/CN1C2COCC1C2 [Example 76, 2-((2S)-1-((E)-4-(3-oxa-6-azabicyclo[3.1.1]heptan-6-yl)but-2-enoyl)-4-(7-(8-chloro-7-fluoronaphthalen-1-yl)-8-fluoro-2-(((2R,7aS)-2-fluorotetrahydro-1H-pyrrolizin-7a(5H)-yl)methoxy)pyrido[4,3-d]pyrimidin-4-yl)piperazin-2-yl)acetonitrile] | < 10 | < 10 | –

Second part, led by results:

IC50 [1] [nM] | IC50 [2] [nM] | Compound | Log D, pH 7.4 [3]
< 10 | < 10 | N#CC[C@H]1CN(c2nc(OC[C@@]34CCCN3C[C@H](F)C4)nc3c(F)c(-c4cccc5cccc(Cl)c45)ncc23)CCN1C(=O)/C=C/CN1C[C@H]2C[C@@H]1CO2 [Compound 181] | –
< 10 | < 10 | Cc1nccc(/C=C/C(=O)N2CCN(c3nc(OC[C@@]45CCCN4C[C@H](F)C5)nc4c(F)c(-c5cccc6ccc(F)c(F)c56)ncc34)C[C@@H]2CC#N)n1 [Compound 211] | –
< 10 | < 10 | CO[C@@H]1CCN(C/C=C/C(=O)N2CCN(c3nc(OC[C@@]45CCCN4C[C@H](F)C5)nc4c(F)c(-c5cccc6ccc(F)c(F)c56)ncc34)C[C@@H]2CC#N)C1 [Compound 216] | –
< 10 | < 10 | N#CC[C@H]1CN(c2nc(OC[C@@]34CCCN3C[C@H](F)C4)nc3c(F)c(-c4cccc5cccc(F)c45)ncc23)CCN1C(=O)/C=C/CN1C[C@@H]2C[C@H]1CO2 [Compound 219] | –
< 10 | < 10 | N#CC[C@H]1CN(c2nc(OC[C@@]34CCCN3C[C@H](F)C4)nc3c(F)c(-c4cccc5cccc(F)c45)ncc23)CCN1C(=O)/C=C/CN1C[C@H]2C[C@@H]1CO2 [Compound 220] | –
< 10 | < 10 | CCc1c(F)ccc2cccc(-c3ncc4c(N5CCN(C(=O)/C=C/c6ccnc(C)n6)[C@@H](CC#N)C5)nc(OC[C@@]56CCCN5C[C@H](F)C6)nc4c3F)c12 [Compound 227] | –
< 10 | < 10 | N#CC[C@H]1CN(c2nc(OC[C@@]34CCCN3C[C@H](F)C4)nc3c(F)c(-c4cccc(Cl)c4C4CC4)ncc23)CCN1C(=O)/C=C/CN1CCOCC1 [Compound 243] | –
< 10 | < 10 | N#CC[C@H]1CN(c2nc(OC[C@@]34CCCN3C[C@H](F)C4)nc3c(F)c(-c4cccc(Cl)c4C4CC4)ncc23)CCN1C(=O)/C=C/CN1CC[C@H](F)C1 [Compound 283] | –
